What was measured:
Conditions in all cases: 72 h
HepG2 [1] = assay: cell viability relative to DMSO; higher = less toxic
U2OS [2] = assay: as above
Vero E6 [3] = assay: as above
Caco-2 [4] = assay: as above
Calu-3 [5] = assay: as above
HepG2 [6] = assay: drug sensitivity score (DSS) for viability; higher = more toxic; extreme values may be limits of the assay
U2OS [7] = assay: as above
Vero E6 [8] = assay: as above
Caco-2 [9] = assay: as above
Calu-3 [10] = assay: as above
HepG2 [11] = assay: relative viability EC50 (midpoint between 100% and the lowest measured viability); higher = less toxic
U2OS [12] = assay: as above
Vero E6 [13] = assay: as above
Caco-2 [14] = assay: as above
Calu-3 [15] = assay: as above

Structure (SMILES) | cell viability (HepG2 [1]; 1 nM) | cell viability (HepG2 [1]; 10 nM) | cell viability (HepG2 [1]; 100 nM) | cell viability (HepG2 [1]; 1000 nM) | cell viability (HepG2 [1]; 10000 nM) | cell viability (U2OS [2]; 1 nM) | cell viability (U2OS [2]; 10 nM) | cell viability (U2OS [2]; 100 nM) | cell viability (U2OS [2]; 1000 nM) | cell viability (U2OS [2]; 10000 nM) | cell viability (Vero E6 [3]; 1 nM) | cell viability (Vero E6 [3]; 10 nM) | cell viability (Vero E6 [3]; 100 nM) | cell viability (Vero E6 [3]; 1000 nM) | cell viability (Vero E6 [3]; 10000 nM) | cell viability (Caco-2 [4]; 1 nM) | cell viability (Caco-2 [4]; 10 nM) | cell viability (Caco-2 [4]; 100 nM) | cell viability (Caco-2 [4]; 1000 nM) | cell viability (Caco-2 [4]; 10000 nM) | cell viability (Calu-3 [5]; 1 nM) | cell viability (Calu-3 [5]; 10 nM) | cell viability (Calu-3 [5]; 100 nM) | cell viability (Calu-3 [5]; 1000 nM) | cell viability (Calu-3 [5]; 10000 nM) | drug sensitivity score (HepG2 [6]) | drug sensitivity score (U2OS [7]) | drug sensitivity score (Vero E6 [8]) | drug sensitivity score (Caco-2 [9]) | drug sensitivity score (Calu-3 [10]) | relative viability EC50 (HepG2 [11]) | relative viability EC50 (U2OS [12]) | relative viability EC50 (Vero E6 [13]) | relative viability EC50 (Caco-2 [14]) | relative viability EC50 (Calu-3 [15])
N[C@@H](Cn1oc(=O)[nH]c1=O)C(=O)O [L-quisqualic-acid] | 89.7% | 99.1% | 91% | 89.8% | 107% | 99.2% | 104% | 101% | 101% | 95.7% | 101% | 100% | 98.7% | 96.8% | 102% | 99.1% | 94% | 91.9% | 97% | 97.5% | 87.9% | 96.2% | 100% | 93.1% | 94.9% | 0 | 0 | 0 | 0 | 0 | > 10 µM | > 10 µM | > 10 µM | > 10 µM | > 10 µM
Fc1ccc(-c2c3cccc(C(F)(F)F)c3nn2Cc2ccc(F)cc2Cl)cc1 [LXR-623] | 95.5% | 94.4% | 87.9% | 90.2% | 77.2% | 102% | 98.2% | 102% | 97.1% | 97.4% | 105% | 105% | 102% | 98% | 98.6% | 102% | 92% | 94.5% | 96.5% | 83.2% | 101% | 97.3% | 97% | 93.7% | 91.2% | 1.9 | 0 | 0 | 0.2 | 0 | > 10 µM | > 10 µM | > 10 µM | > 10 µM | > 10 µM
Cc1ccc(S(=O)(=O)n2c(N)nc3ccccc32)cc1 [ML130] | 98% | 107% | 111% | 100% | 104% | 104% | 108% | 105% | 103% | 97.3% | 103% | 108% | 103% | 109% | 96.2% | 107% | 97% | 107% | 101% | 90.5% | 103% | 89.2% | 99.5% | 101% | 103% | 0 | 0 | 0 | 0 | 0 | > 10 µM | > 10 µM | > 10 µM | > 10 µM | > 10 µM
NC(=O)C1=CN([C@@H]2O[C@H](COP(=O)(O)OP(=O)(O)OC[C@H]3O[C@@H](n4cnc5c(N)ncnc54)[C@H](OP(=O)(O)O)[C@@H]3O)[C@@H](O)[C@H]2O)C=CC1 [NADPH] | 101% | 104% | 97.7% | 86.2% | 104% | 94.1% | 101% | 98.4% | 102% | 98.1% | 105% | 86% | 103% | 94.6% | 99.5% | 86.7% | 92.7% | 88.4% | 93% | 91.9% | 90.8% | 85.1% | 87.7% | 91% | 101% | 0 | 0 | 0 | 0 | 0.1 | > 10 µM | > 10 µM | > 10 µM | > 10 µM | > 10 µM
c1ccc(-c2nc(CN3CCN(c4ncccn4)CC3)c[nH]2)cc1 [NGD-94-1] | 98.2% | 97.3% | 94.1% | 101% | 105% | 100% | 95.5% | 98.4% | 92.5% | 109% | 93.2% | 97.5% | 91.5% | 92.9% | 105% | 99.7% | 106% | 91.9% | 102% | 111% | 79.7% | 93.8% | 85.5% | 95.7% | 108% | 0 | 0 | 0 | 0 | 0 | > 10 µM | > 10 µM | > 10 µM | > 10 µM | > 10 µM
Cc1cc(O)c(-c2ccc([C@@H](C)CN)cc2)c2c1[nH]c(=O)c1sccc12 [OTS514] | 109% | 99.4% | 46.3% | 3.1% | 1.1% | 96.3% | 97.8% | 96.6% | 1.1% | 1.1% | 102% | 98.8% | 93.2% | 85.4% | 6% | 98.6% | 87.1% | 83.6% | 29.9% | 25.5% | 105% | 92.5% | 81.7% | 23.9% | 38.8% | 24.2 | 18.2 | 7.6 | 14.9 | 16.7 | 0.0917 µM | 0.291 µM | 1.95 µM | 0.21 µM | 0.16 µM
COc1ccccc1C(=O)Nc1cc2c(cc1N1CCCC1)n(C)c(=O)n2C [PFI-4] | 92.7% | 93.1% | 94.1% | 96.5% | 91.5% | 101% | 101% | 97.6% | 99.4% | 92% | 99.2% | 102% | 96.2% | 92.2% | 89% | 104% | 99.8% | 92.7% | 89.1% | 77.6% | 93.7% | 104% | 94.7% | 106% | 98% | 0 | 0 | 0 | 1.6 | 0 | > 10 µM | > 10 µM | > 10 µM | > 10 µM | > 10 µM
CCCCOc1cc(CC2CNC(=O)N2)ccc1OC (stereo not given) [Ro-20-1724] | 101% | 91.6% | 105% | 91.1% | 89.5% | 96.3% | 102% | 95.2% | 107% | 102% | 95.4% | 94.8% | 101% | 95.1% | 99.1% | 97.3% | 96.8% | 102% | 103% | 110% | 97.1% | 105% | 104% | 108% | 96.8% | 0.1 | 0 | 0 | 0 | 0 | > 10 µM | > 10 µM | > 10 µM | > 10 µM | > 10 µM
N[C@@H](CCC(=O)N[C@@H](CSN=O)C(=O)NCC(=O)O)C(=O)O [S-nitrosoglutathione] | 102% | 98.4% | 108% | 91.7% | 99% | 98% | 97.6% | 92.9% | 98.3% | 101% | 93.6% | 97.2% | 95.2% | 95.2% | 101% | 101% | 98.2% | 96.3% | 87.9% | 99.9% | 94% | 99.2% | 93.9% | 108% | 108% | 0 | 0 | 0 | 0 | 0 | > 10 µM | > 10 µM | > 10 µM | > 10 µM | > 10 µM
COc1ccc(CCNCc2ccc(OCc3ccc(Cl)nc3)c(OC)c2)cc1OC [SBE-13] | 107% | 105% | 102% | 96.1% | 94% | 98% | 103% | 102% | 98.8% | 95.2% | 107% | 104% | 101% | 98.5% | 97.3% | 90.3% | 94.3% | 92.1% | 98.2% | 95.3% | 108% | 97.8% | 93.3% | 99.1% | 93.8% | 0 | 0 | 0 | 0 | 0 | > 10 µM | > 10 µM | > 10 µM | > 10 µM | > 10 µM
NC(=O)c1ccc2[nH]ccc2c1 [SD-169] | 93.7% | 92.4% | 102% | 102% | 83.4% | 104% | 104% | 102% | 98.9% | 101% | 98.8% | 99.1% | 92.6% | 97.6% | 89.8% | 94.7% | 90.8% | 100% | 92.9% | 99.2% | 103% | 87.6% | 98.5% | 99.6% | 101% | 0.3 | 0 | 0 | 0 | 0 | > 10 µM | > 10 µM | > 10 µM | > 10 µM | > 10 µM
O=C(O)CCc1cc(C(=O)c2ccc(OC3CCCC3)cc2O)ccc1OCc1ccc2c(O)noc2c1 [T-5224] | 97.9% | 93% | 105% | 102% | 96.4% | 97.6% | 99.2% | 95.9% | 99.9% | 96.4% | 93.9% | 101% | 97.2% | 102% | 94.9% | 106% | 99.2% | 101% | 93.6% | 94% | 97.3% | 106% | 92.3% | 93.9% | 100% | 0 | 0 | 0 | 0 | 0 | > 10 µM | > 10 µM | > 10 µM | > 10 µM | > 10 µM

From the supplement of paper PMC13380429
